Results on 15 compounds are retold here after patent publication US20130144250A1, “IMPLANTABLE DRUG DELIVERY COMPOSITIONS AND METHODS OF TREATMENT THEREOF” (Endo Pharmaceuticals Solutions Inc., priority 2011, published 2013).

Series [1] is described as follows: In vitro elution of the API from implants in an elution bath of 0.9% saline at 37° C., exchanges analyzed by HPLC. Type of series: physicochemical. The method, then:
The testing method set forth in the examples to determine the elution rates for the respective actives included placing the implants in an elution bath consisting of 50 mL 0.9% saline at 37° C. Weekly exchanges of the elution media were analyzed by HPLC for the durations given.
A drug implant was manufactured as described in Example 1 using an aliphatic, polyether-based polyurethane (TECOFLEX® EG-93A polyurethane) as the tubing material. […] Nine pellets of the anastrozole blend were then placed inside the tubing. A total of about 370 mg anastrozole per implant was used. The implants were sterilized by gamma irradiation and placed in an elution bath of 0.9% saline (50 mL) at 37° C. Regular exchanges of the elution media were analyzed by HPLC for over 400 days.
Implants D and E were then tested for in vitro elution, as described in Example 2.
The implants were sterilized by gamma irradiation and placed in an elution bath of 0.9% saline (200 mL) at 37° C.
Drug containing pellets were manufactured as described in Example 1, and the polymeric sorption enhancer croscarmellose sodium was added to the drug blend. Nine pellets of a drug blend with various concentrations of anastrozole and croscarmellose, with the remainder being 2% stearic acid as lubricant, were placed into a polyurethane tubing (TECOFLEX® EG-93A). The implants were sterilized by gamma irradiation and placed in an elution batch consisting of 50 mL saline at 37° C. Weekly exchanges of the elution media were analyzed by HPLC for 13 weeks.
Drug containing pellets were manufactured as described in Example 1, and the polymeric sorption enhancer croscarmellose sodium was added to the drug blend. […] The implants were sterilized by gamma irradiation and placed in an elution batch consisting of 500 mL saline at 37° C. Weekly exchanges of the elution media were analyzed by HPLC for 11 weeks.
A total of about 250 mg fingolimod were loaded into the implants with 10% croscarmellose and 2% stearic acid. The implants were sterilized by gamma irradiation and placed in an elution batch consisting of 800 mL 0.9% saline at 37° C. Weekly exchanges of the elution media were analyzed by HPLC for up to 30 weeks.
The drug implants were manufactured as described in Example 26 using TECOFLEX® EG-80A, TECOFLEX® EG-85A, TECOFLEX® EG-93A, TECOFLEX® EG-100A, TECOFLEX® EG-65D, or TECOFLEX® EG-68D polyurethanes as the tubing materials and varenicline tartrate as the API. […] A total of about 350 mg varenicline tartrate were loaded into each implant with 10% croscarmellose and 2% stearic acid. The implants were sterilized by gamma irradiation and placed in an elution batch consisting of 200 mL 0.9% saline at 37° C. Weekly exchanges of the elution media were analyzed by HPLC for up to 11 weeks.
The drug implant was manufactured as described in Example 26 using TECOFLEX® EG-93A polyurethane as the tubing material and varenicline free base as the API. […] A total of about is 250 mg varenicline free base were loaded into the implant with 10% croscarmellose and 2% stearic acid. The implant was sterilized by gamma irradiation and placed in an elution batch consisting of 100 mL 0.9% saline at 37° C.

For series [2] the following is noted: cited from earlier work.
The subject of series [3] is estrogen formation. The note with it: indirect effect model with sigmoidal inhibitory drug effect.
Series [4] concerns estrogen formation. The series is described as follows: animal or person. As to conditions: Homo sapiens, read-out: EC50 (concentration achieving half-maximal response).
For series [5] the following is noted: human, in vivo, po.

≈ marks a conversion by molar mass, not a printed value. Where a name gives a salt, the structure may show the parent alone. Read-outs that look alike come from different tables or passages of the source. Some results are limits rather than exact numbers.

In the case of `CC(C)(C#N)c1cc(Cn2cncn2)cc(C(C)(C)C#N)c1` [Anastrozole, anastrozole], the “duration of pseudo-zero order elution rate” value in series [1] (FIG. 4, aliphatic polyether-based urethane implant (Example 2)) is “over 400 days”; in series [1] (FIG. 13, 10% sorption enhancer (croscarmellose)) it was “over 80 days”; in series [1] (FIG. 14, 10% sodium carboxymethyl starch), “over 80 days”; in series [1] (FIG. 14, 10% sodium starch glycolate) it was “over 80 days”. Also, the “duration of pseudo-zero order elution” value in series [1] (FIG. 8, polyether-based polyurethane excipient) is “over one year”. Also, the “elution profile, 9 pellets versus 7 pellets” value in series [1] (FIG. 10) is reported as “higher elution profile”. Besides, the “drug release rate on increasing sodium polyacrylate from 10% to 14% of the drug blend” value in series [1] (TECOFLEX EG-93A) is “increased the drug release rate”. For the same compound, the elution rate entry in series [1] (TECOFLEX EG-93A implant, 2% croscarmellose, 50 mL saline) is “about 250 μg/day”; in series [1] (TECOFLEX EG-93A implant, 10% croscarmellose, 50 mL saline), “about 850 μg/day”. For the same compound, in series [1] (TECOFLEX EG-93A, about 125 mg to about 540 mg per implant, over 70 days), the “release with increased load into the implant” value is given as “linear release”. Moreover, the “drug release compared to no added sorption enhancer” value is “increased the drug release” in series [1] (TECOFLEX EG-93A, even the smallest percentage of croscarmellose sodium) and “increased the drug release” in series [1] (TECOFLEX EG-93A, sodium polyacrylate). The Bioavailability in series [2] (oral dosage) is on record as 80-85%. Besides, the “Hill coefficient of the concentration response curve on estrogen” value in the series with estrogen formation [3] is given as 0.455. For the same compound, the EC50 in the series with estrogen formation [4] worked out at 0.000565 ng/mL (≈ 0.00193 nM).

Turning to `O=C1CCc2ccc(OCCCCN3CCN(c4cccc(Cl)c4Cl)CC3)cc2N1` [Aripiprazole, aripiprazole], in series [2] (oral dosage), the Bioavailability is recorded as 85%.

With `C[C@]12C=CC(=O)N[C@@H]1CC[C@@H]1[C@@H]2CC[C@]2(C)[C@@H](C(=O)Nc3cc(C(F)(F)F)ccc3C(F)(F)F)CC[C@@H]12` [Dutasteride, dutasteride], the Bioavailability in series [2] (oral dosage) is reported as around 60%.

For the compound `Nc1nc2ncc(CNc3ccc(C(=O)N[C@@H](CCC(=O)O)C(=O)O)cc3)nc2c(=O)[nH]1` [Folic acid, folic acid], the Bioavailability in series [2] (oral dosage) is 60%.

Take `N#Cc1ccc(C(c2ccc(C#N)cc2)n2cncn2)cc1` [Letrozole, letrozole]: in series [2] (oral dosage), the Bioavailability is on record as 99%.

Consider `CCN(CC)CC#CCOC(=O)C(O)(c1ccccc1)C1CCCCC1` (stereo not drawn) [Oxybutynin HCl, oxybutynin hydrochloride], for which the “release rates from implants” value in series [1] (TECOFLEX EG-80A and EG-85A implants, oxybutynin HCl) is listed as “suitable release rates”. In addition, in series [1] (TECOFLEX EG-93A, TECOPHILIC HP-60D-05 and HP-60D-10 implants, oxybutynin HCl), the elution from implants entry is “failed to elute”.

For `Cc1nc2n(c(=O)c1CCN1CCC(c3noc4cc(F)ccc34)CC1)CCCC2O` (stereo not drawn) [Paliperidone, paliperidone], in series [2] (oral dosage), the Bioavailability is given as 28%.

As to `Cc1nc2n(c(=O)c1CCN1CCC(c3noc4cc(F)ccc34)CC1)CCCC2` [Risperidone, 4-[2-[4-(6-fluorobenzo[d]isoxazol-3-yl)-1-piperidyl]ethyl]-3-methyl-2,6-diazabicyclo[4.4.0]deca-1,3-dien-5-one], the elution rate result in series [1] (TECOFLEX EG-80A implant, 2% croscarmellose, 500 mL saline, week 2) is on record as “about 1,450 μg/day”; in series [1] (TECOFLEX EG-80A implant, 2% croscarmellose, 500 mL saline, week 11) it was “about 850 μg/day”; in series [1] (TECOFLEX EG-80A implant, 12% croscarmellose, 500 mL saline, week 2) it was “about 1,800 μg/day”; in series [1] (TECOFLEX EG-80A implant, 12% croscarmellose, 500 mL saline, week 11), “about 1,400 μg/day”. Further, the “daily elution rates with a sorption enhancer in comparison to an implant without” value in series [1] (TECOFLEX EG-80A, 10% croscarmellose vs none, 200 mL saline) is “significantly higher”. Besides, the “drug release compared to no added sorption enhancer” value is “increased the drug release” in series [1] (TECOFLEX EG-80A, 10% polyethylene oxide, sodium polyacrylate or chondroitin sulfate); “increased the drug release” in series [1] (TECOFLEX EG-80A, 10% sodium carboxymethyl cellulose); “increased the drug release” in series [1] (TECOFLEX EG-80A, even the smallest percentage of croscarmellose sodium). For the same compound, the “time of peak active moiety plasma concentration following administration” value in series [5] is at most 3 h.

On to `CCN(C)C(=O)Oc1cccc([C@H](C)N(C)C)c1` [Rivastigmine Tartrate, rivastigmine tartrate], for which the Bioavailability in series [2] (oral dosage) is listed as 35%.

In the case of `CCCN(CCc1cccs1)[C@H]1CCc2c(O)cccc2C1` [Rotigotine, rotigotine], in series [2] (transdermal), the Bioavailability is given as 35%.

In the case of `C#CCN(C)[C@H](C)Cc1ccccc1` [Selegiline HCl, selegiline HCl], the Bioavailability in series [2] (buccal 1.25 mg/day) is 90%.

Take `Cc1ccc(O)c([C@H](CCN(C(C)C)C(C)C)c2ccccc2)c1` [Tolterodine Tartrate, tolterodine tartrate]: the Bioavailability in series [2] (oral dosage) was around 75%.

Regarding `CCN(CC)CC#CCOC(=O)C(O)(c1ccccc1)C1CCCCC1` (stereo not drawn) [oxybutynin free base, oxybutynin], in series [1] (TECOFLEX EG-80A and EG-85A implants, oxybutynin free base), the elution from implants entry is on record as “essentially streamed out”. The “release rates from implants” value in series [1] (TECOFLEX EG-93A, TECOPHILIC HP-60D-05 and HP-60D-10 implants, oxybutynin free base) is “suitable and controllable release rates”. The Bioavailability in series [2] (oral dosage) is around 6%.

Take `c1cnc2cc3c(cc2n1)[C@@H]1CNC[C@H]3C1` [varenicline free base, varenicline]: in series [1] (TECOFLEX EG-93A implant, 100 mL saline), the release rate result was “about 1,750 μg/day”. Also, the “elution rates in vitro in comparison to the salt form” value in series [1] (free base vs HCl or tartrate salt) was “higher and more stable”.

With varenicline tartrate, the “drug release from implants” value in series [1] (TECOFLEX EG-80A and EG-85A implants, after a long incubation phase) was “released but without any control over the release”; in series [1] (TECOFLEX EG-93A, EG-100A, EG-65D and EG-68D implants, 200 mL saline), “no drug was released”.
